Reference: ChEMBL document CHEMBL1201862, “PubChem BioAssay data set” (2004)
Calls of active or inactive are those of the source.

Key:
Cysteine protease ATG4B = molecular target: T1, Cysteine protease ATG4B (Homo sapiens, UniProt Q9Y4P1); format: functional;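 further: Fluorescence-based dose-response confirmation assay measuring inhibition of ATG4B activity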
T1 sequence (Q9Y4P1 whole entry): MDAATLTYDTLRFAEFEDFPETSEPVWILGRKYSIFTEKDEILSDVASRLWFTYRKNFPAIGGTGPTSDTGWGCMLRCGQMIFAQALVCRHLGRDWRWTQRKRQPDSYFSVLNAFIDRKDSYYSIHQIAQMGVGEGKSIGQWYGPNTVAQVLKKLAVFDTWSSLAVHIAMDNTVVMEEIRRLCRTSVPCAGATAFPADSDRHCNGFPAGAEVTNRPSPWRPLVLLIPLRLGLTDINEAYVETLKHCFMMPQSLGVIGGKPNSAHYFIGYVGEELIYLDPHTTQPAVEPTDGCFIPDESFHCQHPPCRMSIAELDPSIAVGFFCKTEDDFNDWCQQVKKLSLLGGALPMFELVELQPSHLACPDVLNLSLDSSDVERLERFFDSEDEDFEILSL

Phospholipase A2 = Phospholipase A2 (Homo sapiens, UniProt P04054); format: functional;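 further: confirmatory dose-response counterscreen on phospholipase A2, testing hits that came from an ultra-high-throughput screen for ATG4B inhibitors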
Phospholipase A2, sequence (P04054 whole entry): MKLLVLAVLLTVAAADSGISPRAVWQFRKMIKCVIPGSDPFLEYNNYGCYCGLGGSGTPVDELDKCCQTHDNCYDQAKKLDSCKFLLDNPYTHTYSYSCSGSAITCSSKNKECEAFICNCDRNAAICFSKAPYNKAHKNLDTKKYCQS

Cytochrome P450 2D6 [1] = molecular target: T2, Cytochrome P450 2D6 (Homo sapiens, UniProt P10635);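 further: CYP2D6 member of a cytochrome P450 panel assay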
T2 sequence (P10635 whole entry): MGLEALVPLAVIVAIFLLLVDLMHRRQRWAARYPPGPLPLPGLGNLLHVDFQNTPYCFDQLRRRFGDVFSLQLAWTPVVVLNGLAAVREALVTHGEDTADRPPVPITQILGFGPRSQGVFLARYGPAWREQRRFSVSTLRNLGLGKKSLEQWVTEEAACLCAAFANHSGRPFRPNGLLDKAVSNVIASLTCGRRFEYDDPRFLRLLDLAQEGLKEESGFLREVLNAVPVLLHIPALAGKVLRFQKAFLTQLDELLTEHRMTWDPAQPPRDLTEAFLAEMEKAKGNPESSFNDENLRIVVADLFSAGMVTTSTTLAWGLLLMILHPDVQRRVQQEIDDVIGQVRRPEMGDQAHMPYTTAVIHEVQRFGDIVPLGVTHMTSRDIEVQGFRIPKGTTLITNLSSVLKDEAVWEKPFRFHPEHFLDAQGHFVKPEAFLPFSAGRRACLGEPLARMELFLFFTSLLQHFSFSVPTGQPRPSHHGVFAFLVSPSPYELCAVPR

Cytochrome P450 3A4 = Cytochrome P450 3A4 (Homo sapiens, UniProt P08684);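 further: CYP3A4 tested as one member of a cytochrome P450 panel screen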
Cytochrome P450 3A4, sequence (P08684 whole entry): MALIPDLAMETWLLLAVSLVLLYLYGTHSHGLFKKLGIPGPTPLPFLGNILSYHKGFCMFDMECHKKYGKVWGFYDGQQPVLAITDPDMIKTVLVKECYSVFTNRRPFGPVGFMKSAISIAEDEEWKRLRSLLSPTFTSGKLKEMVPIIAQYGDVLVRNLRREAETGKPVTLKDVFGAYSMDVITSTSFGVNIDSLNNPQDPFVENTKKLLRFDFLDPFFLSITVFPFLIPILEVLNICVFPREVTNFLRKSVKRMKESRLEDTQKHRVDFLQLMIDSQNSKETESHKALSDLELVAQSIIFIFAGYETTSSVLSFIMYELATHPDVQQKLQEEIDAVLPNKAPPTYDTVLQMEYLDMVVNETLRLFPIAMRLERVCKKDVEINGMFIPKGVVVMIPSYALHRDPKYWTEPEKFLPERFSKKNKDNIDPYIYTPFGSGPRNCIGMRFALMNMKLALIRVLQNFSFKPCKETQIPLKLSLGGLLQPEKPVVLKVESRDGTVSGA

Cytochrome P450 2C9 = Cytochrome P450 2C9 (Homo sapiens, UniProt P11712)
Cytochrome P450 2C9, sequence (P11712 whole entry): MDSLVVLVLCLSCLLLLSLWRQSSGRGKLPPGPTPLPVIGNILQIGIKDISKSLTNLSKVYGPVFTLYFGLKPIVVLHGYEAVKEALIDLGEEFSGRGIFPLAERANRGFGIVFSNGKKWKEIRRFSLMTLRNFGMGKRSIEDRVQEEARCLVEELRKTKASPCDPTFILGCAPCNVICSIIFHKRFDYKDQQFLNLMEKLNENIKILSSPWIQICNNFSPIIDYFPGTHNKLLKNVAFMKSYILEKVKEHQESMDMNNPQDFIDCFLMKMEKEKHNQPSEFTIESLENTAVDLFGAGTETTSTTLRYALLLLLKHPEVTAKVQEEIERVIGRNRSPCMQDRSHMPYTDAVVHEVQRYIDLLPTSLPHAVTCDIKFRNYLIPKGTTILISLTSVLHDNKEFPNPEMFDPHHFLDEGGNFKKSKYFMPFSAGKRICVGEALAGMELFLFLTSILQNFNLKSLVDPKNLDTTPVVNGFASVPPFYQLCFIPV

[2] = molecular target: Dual specificity protein kinase CLK1 (Homo sapiens, UniProt P49759); test: CLK1 kinase inhibitors, off-target check, dose response, selectivity assay for Dyrk1A inhibitor project, biochemical, cherry-picked samples (AID 588811)
Dual specificity protein kinase CLK1, sequence (P49759 whole entry): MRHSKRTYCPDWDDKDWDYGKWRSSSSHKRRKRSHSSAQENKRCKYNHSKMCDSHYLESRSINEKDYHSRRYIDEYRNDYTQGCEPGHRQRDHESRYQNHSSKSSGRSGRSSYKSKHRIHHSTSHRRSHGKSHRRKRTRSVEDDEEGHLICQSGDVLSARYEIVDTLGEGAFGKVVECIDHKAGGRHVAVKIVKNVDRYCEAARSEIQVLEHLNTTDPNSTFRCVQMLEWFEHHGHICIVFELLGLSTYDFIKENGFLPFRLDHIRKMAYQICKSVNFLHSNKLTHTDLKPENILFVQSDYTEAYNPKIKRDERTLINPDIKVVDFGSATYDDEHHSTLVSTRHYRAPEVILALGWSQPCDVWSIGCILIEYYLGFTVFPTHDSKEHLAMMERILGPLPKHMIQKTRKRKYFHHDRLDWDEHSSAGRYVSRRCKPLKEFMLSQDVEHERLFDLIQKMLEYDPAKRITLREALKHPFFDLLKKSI

[3] = molecular target: Dual specificity tyrosine-phosphorylation-regulated kinase 1A (Rattus norvegicus, UniProt Q63470); format: biochemical, Homo sapiens
Cytochrome P450 1A2 = molecular target: T3, Cytochrome P450 1A2 (Homo sapiens, UniProt P05177);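 further: PubChem cytochrome P450 panel assay, CYP1A2 panel member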
T3 sequence (P05177 whole entry): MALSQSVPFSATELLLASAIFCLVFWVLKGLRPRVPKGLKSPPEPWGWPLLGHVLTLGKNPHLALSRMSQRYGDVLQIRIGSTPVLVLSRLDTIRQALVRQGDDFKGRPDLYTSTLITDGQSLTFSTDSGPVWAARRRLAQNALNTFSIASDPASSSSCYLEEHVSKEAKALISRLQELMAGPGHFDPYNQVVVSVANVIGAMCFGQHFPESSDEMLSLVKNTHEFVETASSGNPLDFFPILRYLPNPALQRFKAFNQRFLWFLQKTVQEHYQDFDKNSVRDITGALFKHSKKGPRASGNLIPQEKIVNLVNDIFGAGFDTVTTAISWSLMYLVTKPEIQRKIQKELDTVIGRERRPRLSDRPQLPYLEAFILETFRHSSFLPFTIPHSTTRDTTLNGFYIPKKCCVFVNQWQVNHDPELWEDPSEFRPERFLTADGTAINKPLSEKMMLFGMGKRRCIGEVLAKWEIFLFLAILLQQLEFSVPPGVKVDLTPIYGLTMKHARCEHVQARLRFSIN

Cytochrome P450 2D6 [4] = molecular target: T2, Cytochrome P450 2D6; remark: listed apart in the source
Bcl-2-related protein A1 = molecular target: T4, Bcl-2-related protein A1 (Mus musculus, UniProt Q07440); format: functional;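 further: confirmatory dose–response counterscreen on Bfl-1, used to check hits from a UBC13 polyubiquitin inhibitor campaign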
T4 sequence (Q07440 whole entry): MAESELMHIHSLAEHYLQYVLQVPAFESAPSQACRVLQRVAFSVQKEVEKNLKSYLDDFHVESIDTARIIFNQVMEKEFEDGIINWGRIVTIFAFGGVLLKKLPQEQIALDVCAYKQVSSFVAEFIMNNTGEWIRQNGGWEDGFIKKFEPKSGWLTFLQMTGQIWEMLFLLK

[5] = molecular target: T5, Ubiquitin-conjugating enzyme E2 N (Homo sapiens, UniProt P61088); format: functional
T5 sequence (P61088 whole entry): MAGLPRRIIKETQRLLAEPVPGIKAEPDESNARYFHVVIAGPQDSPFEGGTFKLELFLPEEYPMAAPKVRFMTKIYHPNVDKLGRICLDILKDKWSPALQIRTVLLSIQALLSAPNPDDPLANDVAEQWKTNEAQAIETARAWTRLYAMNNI

[6] = molecular target: T5, Ubiquitin-conjugating enzyme E2 N; format: functional; remark: listed apart in the source
Cytochrome P450 2C19 = Cytochrome P450 2C19 (Homo sapiens, UniProt P33261); test: Cytochrome panel assay with activity outcomes. Panel member name: p450-cyp2c19 Compounds with AC50 equal or less than 10 uM are considered active; format: functional
Cytochrome P450 2C19, sequence (P33261 whole entry): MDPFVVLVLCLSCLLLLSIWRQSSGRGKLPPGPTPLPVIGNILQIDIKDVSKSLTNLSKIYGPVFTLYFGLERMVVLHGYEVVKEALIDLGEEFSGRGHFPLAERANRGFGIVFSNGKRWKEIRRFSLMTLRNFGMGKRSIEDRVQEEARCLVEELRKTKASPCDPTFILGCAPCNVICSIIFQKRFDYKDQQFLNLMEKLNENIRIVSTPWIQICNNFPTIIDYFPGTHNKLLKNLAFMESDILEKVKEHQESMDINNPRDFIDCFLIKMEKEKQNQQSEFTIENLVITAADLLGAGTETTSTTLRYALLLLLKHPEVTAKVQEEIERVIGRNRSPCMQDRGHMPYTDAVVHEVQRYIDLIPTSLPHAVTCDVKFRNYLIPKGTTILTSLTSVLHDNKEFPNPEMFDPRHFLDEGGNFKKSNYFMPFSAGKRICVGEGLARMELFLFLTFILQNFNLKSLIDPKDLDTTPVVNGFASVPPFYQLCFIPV

Coagulation factor XII = molecular target: T6, Coagulation factor XII (Homo sapiens, UniProt P00748); format: functional;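 further: activated factor XIIa alpha cleaving a fluorogenic AMC peptide substrate; inhibitor potency from loss of enzyme activity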
T6 sequence (P00748 whole entry): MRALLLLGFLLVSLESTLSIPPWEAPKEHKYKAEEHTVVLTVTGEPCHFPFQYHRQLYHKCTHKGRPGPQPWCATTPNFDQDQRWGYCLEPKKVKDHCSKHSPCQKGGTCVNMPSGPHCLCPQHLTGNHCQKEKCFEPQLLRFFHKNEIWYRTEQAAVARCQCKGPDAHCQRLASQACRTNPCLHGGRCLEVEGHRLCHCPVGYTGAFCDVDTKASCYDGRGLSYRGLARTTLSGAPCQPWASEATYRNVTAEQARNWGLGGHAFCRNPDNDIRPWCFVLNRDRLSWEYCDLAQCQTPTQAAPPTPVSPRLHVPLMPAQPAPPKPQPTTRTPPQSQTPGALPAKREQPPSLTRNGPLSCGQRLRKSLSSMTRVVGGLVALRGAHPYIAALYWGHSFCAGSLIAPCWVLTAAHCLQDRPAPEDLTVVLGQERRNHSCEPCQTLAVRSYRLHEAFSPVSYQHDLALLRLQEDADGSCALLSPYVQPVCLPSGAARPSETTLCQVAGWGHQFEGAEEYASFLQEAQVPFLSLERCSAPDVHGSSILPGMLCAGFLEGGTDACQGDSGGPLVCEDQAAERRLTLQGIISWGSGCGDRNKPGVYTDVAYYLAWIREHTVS

BJ [7] = test: cytotoxicity toward BJ-TERT fibroblasts, dose response, cell-based, RAS-independent, luminescence (AID 1933); format: functional; conditions: Homo sapiens
SUMO-activating enzyme = SUMO-activating enzyme (Homo sapiens, UniProt Q9UBT2); test: SUMOylation inhibitor hit validation, confirmation, SUMOylation inhibitor project, biochemical, AlphaScreen (AID 2018); format: functional
SUMO-activating enzyme, sequence (Q9UBE0 whole entry): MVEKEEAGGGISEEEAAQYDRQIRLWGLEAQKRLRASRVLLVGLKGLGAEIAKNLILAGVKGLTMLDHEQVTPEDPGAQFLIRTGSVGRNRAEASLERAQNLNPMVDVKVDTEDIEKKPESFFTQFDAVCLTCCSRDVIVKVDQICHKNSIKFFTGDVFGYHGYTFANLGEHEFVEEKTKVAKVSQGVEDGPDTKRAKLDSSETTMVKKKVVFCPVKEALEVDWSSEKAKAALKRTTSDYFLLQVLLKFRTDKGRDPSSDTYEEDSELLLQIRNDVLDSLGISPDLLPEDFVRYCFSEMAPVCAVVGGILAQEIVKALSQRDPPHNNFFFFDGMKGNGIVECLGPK
SUMO-activating enzyme, sequence (Q9UBT2 whole entry): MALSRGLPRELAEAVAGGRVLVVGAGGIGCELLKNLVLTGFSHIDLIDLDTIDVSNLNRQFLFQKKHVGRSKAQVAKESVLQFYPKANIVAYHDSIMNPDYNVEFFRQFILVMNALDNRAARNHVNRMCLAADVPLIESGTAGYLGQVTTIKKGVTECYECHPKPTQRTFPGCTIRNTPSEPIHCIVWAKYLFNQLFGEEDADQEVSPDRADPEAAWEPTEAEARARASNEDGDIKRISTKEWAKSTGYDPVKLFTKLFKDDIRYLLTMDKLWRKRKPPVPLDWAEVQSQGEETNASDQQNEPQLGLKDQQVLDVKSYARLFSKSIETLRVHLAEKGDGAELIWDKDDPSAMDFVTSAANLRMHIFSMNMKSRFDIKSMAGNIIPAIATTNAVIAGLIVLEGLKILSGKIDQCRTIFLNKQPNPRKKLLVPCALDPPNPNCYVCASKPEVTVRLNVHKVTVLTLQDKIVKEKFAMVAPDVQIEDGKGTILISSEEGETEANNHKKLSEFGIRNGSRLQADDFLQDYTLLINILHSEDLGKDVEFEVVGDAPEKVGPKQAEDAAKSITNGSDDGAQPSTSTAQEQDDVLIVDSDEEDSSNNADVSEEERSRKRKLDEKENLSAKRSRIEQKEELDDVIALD

BJ [8] = test: cells; format: functional, cell-based; conditions: Homo sapiens
BJ [9] = test: cytotoxicity toward BJ-TERT-LT-ST fibroblasts, dose response, cell-based, RAS-independent, luminescence (AID 1935); format: functional; conditions: Homo sapiens;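 further: BJ fibroblasts immortalized with TERT plus LT and ST oncogenes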
[10] = cytotoxicity toward DRD oncogenic fibroblasts, dose response, cell-based, non-viral oncogenic, luminescence (AID 1934); format: functional; conditions: Homo sapiens
cells = format: functional
Nonstructural protein 1 = Nonstructural protein 1 (Influenza A virus, UniProt Q194T2); format: functional, Influenza A virus (A/California/07/2009(H1N1))
Nonstructural protein 1, sequence (Q194T2 whole entry): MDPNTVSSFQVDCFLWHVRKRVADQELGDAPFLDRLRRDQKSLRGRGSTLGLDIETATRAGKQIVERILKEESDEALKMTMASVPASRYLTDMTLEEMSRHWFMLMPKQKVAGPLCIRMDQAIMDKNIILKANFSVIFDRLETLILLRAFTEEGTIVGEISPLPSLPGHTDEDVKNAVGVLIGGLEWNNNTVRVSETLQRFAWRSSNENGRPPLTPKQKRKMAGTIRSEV

HEK293 [11] = test: inhibitors of LMP1-driven NF-kB reporter, dose response, cell-based, HEK293, luciferase, cherry-pick (AID 588343); format: functional; conditions: Homo sapiens
[12] = molecular target: Heat shock protein HSP 90-alpha (Homo sapiens, UniProt P07900); format: functional, organism-based
HEK293 [13] = test: cells; conditions: Homo sapiens
HEK293 [14] = test: cells; conditions: Homo sapiens; remark: listed apart in the source

In the case of `Fc1ccc(NCc2ccccc2F)cc1Cl`, the IC50 (Cysteine protease ATG4B) is reported as 13.3 µM (active), the IC50 (Phospholipase A2) is reported as 8.79 µM (active) and the AC50 (Cytochrome P450 2D6 [1]) is reported as 17.8 µM (inconclusive). The AC50 (Cytochrome P450 3A4) was 20 µM (inconclusive) and the AC50 (Cytochrome P450 2C9) was 31.6 µM (inconclusive).
For `COc1cccc(NC(=O)c2sc(NC(=O)c3ccncc3)nc2C)c1`, the AC50 [2] was 22.2 µM (active) and the AC50 [3] was 32.4 µM (active).
In the case of `CCN=C=NCCCN(C)C`, the AC50 (Cytochrome P450 1A2) is reported as 5.01 µM (inconclusive) and the AC50 (Cytochrome P450 2D6 [4]) is reported as “inconclusive”.
For `COc1ccc(N(C(=O)c2snc(C(N)=O)c2N)C(C(=O)NC2CCCC2)c2ccco2)cc1OC` (stereo unspecified), the IC50 (Bcl-2-related protein A1) was > 20 µM (inactive), the IC50 [5] was 12 µM (active) and the IC50 [6] was 7.43 µM (active).
With `Cc1cc2c(ccc3nonc32)[nH]1` the AC50 [3] was 5.79 µM (active).
For `Cn1c(=O)c2nc(CCCCc3nc4ccccc4[nH]3)[nH]c2n(C)c1=O`, the AC50 (Cytochrome P450 2C19) was “inconclusive” and the AC50 (Cytochrome P450 2D6 [4]) was “inconclusive”.
For `N=C1/C(=C/c2ccc(O)cc2)C(=O)N=C2SN=C(SCc3ccccc3)N12`, the IC50 (Cysteine protease ATG4B) was 20.4 µM (inactive) and the IC50 (Phospholipase A2) was 13.3 µM (active).
With `COc1ccc(CCNC(=O)CCn2c(=O)c3ccccc3n(CC(=O)NCC3CCCO3)c2=O)cc1OC` (stereo unspecified) the IC50 (Coagulation factor XII) was > 50 µM (inactive).
For `COc1ccc(C(=O)Nn2c(C)nc3ccccc3c2=O)cc1`, the IC50 (Bcl-2-related protein A1) was > 20 µM (inactive), the IC50 [5] was 10.6 µM (active) and the IC50 [6] was 6.37 µM (active).
With `CCOc1ncccc1C(=O)OCC(=O)Nc1ccc(C(N)=O)cc1` the IC50 (Coagulation factor XII) was > 50 µM (inactive).
With `Clc1ccc(CNc2ncncc2-c2ccc3c(c2)OCO3)cc1` the AC50 [2] was 10 µM (active).
In the case of `Clc1ccc(CNc2nccc(-c3ccc4[nH]ncc4c3)n2)cc1Cl`, the AC50 [2] is reported as 0.00677 µM (active).
For `O=C(N/N=C/c1ccc([N+](=O)[O-])o1)c1cc(-c2ccc(-c3ccccc3)cc2)nc2ccccc12`, the EC50 (BJ [7]) was 9.46 µM (inconclusive), the IC50 (SUMO-activating enzyme) was 15.4 µM (active) and the EC50 (BJ [8]) was 4.52 µM (inconclusive). The EC50 (BJ [9]) was 11.2 µM (active) and the EC50 [10] was 8.03 µM (inconclusive).
For `O=C(O)COc1ccc2occ(C(=O)c3ccccc3)c2c1`, the IC50 (cells) was 12.3 µM (active) and the AC50 [3] was 6.49 µM (active).
In the case of `CC(=NNC(S)=Nc1ccccc1Cl)c1ccccn1`, the IC50 (Nonstructural protein 1) is reported as 21.7 µM (active), the AC50 (HEK293 [11]) is reported as 0.0577 µM (active) and the AC50 [12] is reported as 3.46 µM (active). For the same compound, the EC50 (HEK293 [13]) was > 59.6 µM (inactive) and the EC50 (HEK293 [14]) was > 59.6 µM (inactive).
